According to patent US12064399B2, “Use of cannabinoids in the treatment of epilepsy” (Jazz Pharmaceuticals Research UK Limited, priority 2015, dated 2024):

What was measured:
seizures [1] = details: 200 mg/day of pure CBD; four adult patients; cited from earlier work
total seizures = assay: Expanded access compassionate use program: 50% responders for total seizures, all subjects; format: in vivo, human; details: proportion of all subjects treated; 12 weeks of treatment
Experimental: The terms “50% responder” and “50% reduction in seizure” are both terms used in clinical studies. In the present application the terms define the percentage of subjects that experienced a greater than or equal to 50% reduction in the number of seizures during treatment with CBD in comparison to the number experienced during the baseline period before the CBD was administered.
Of 137 children and young adults with severe, childhood onset treatment-resistant epilepsy (TRE), fifty-one suffered from epilepsy that was characterised by focal seizures. These subjects were tested with a highly purified extract of cannabidiol (CBD) obtained from a Cannabis plant. All subjects presented with focal type seizures, often in addition to generalised seizures. The participants in the study were part of an expanded access compassionate use program for CBD.
All patients entered a baseline period of 4 weeks when parents/caregivers kept prospective seizure diaries, noting all countable seizure types.
The patients then received a highly purified CBD extract (greater than 98% CBD w/w) in sesame oil, of known and constant composition, at a dose of 5 mg/kg/day in addition to their baseline anti-epileptic drug (AED) regimen.

generalized epilepsy = details: of eight adult patients with generalized epilepsy; cited from earlier work
[2] = test system: focal seizures leading to secondary generalisation; assay: Expanded access compassionate use program: 50% responders for focal seizures leading to secondary generalisation; format: in vivo, human; details: proportion of patients; 12 weeks of treatment
[3] = test system: focal seizures without impairment; assay: Expanded access compassionate use program: 50% responders for focal seizures without impairment; format: in vivo, human; details: proportion of patients; 12 weeks of treatment
[4] = Solubility of the drug substance in water; format: physicochemical
absence seizures = assay: Patients with greater than 50% reduction of absence seizures under CBD; format: in vivo, human; details: treatment with CBD
seizures [5] = details: 200 mg day of pure CBD; twelve institutionalized adult patients; open label; cited from earlier work
seizures [6] = details: mice; after administration of pro-convulsant drugs or an electric current; cited from earlier work
[7] = test system: myoclonic absence seizures; assay: Patients with greater than 50% reduction of myoclonic absence seizures under CBD; format: in vivo, human; details: treatment with CBD
refractory epilepsy = details: Press et al.; parental reporting; cited from earlier work
seizures [8] = details: Consroe et al., 1977; cited from earlier work

In the case of `C=C(C)[C@@H]1CCC(C)=C[C@H]1c1c(O)cc(CCCCC)cc1O` [CBD, Cannabidiol], the “patients who became seizure free” value (seizures [1]) is listed as “two of the four patients became seizure free”, the “<50% reduction in seizures, Total seizures (n = 137)” value (total seizures) is listed as 54% (n = 74) and the “patients with marked reduction of seizures” value (generalized epilepsy) is listed as 4. The “<50% reduction in seizures, Focal Seizures Leading to Secondary Generalised (n = 15)” value [2] was 53%, the “>50% reduction in seizures, Focal Seizures Leading to Secondary Generalised (n = 15)” value [2] was 47% and the “<50% reduction in seizures, Focal Seizures without Impairment (n = 6)” value [3] was 50%. The “>50% reduction in seizures, Focal Seizures without Impairment (n = 6)” value [3] was 50%, the solubility in water [4] was “insoluble” and the “proportion of patients with greater than 50% reduction of absence seizures” value (absence seizures) was 64%. The control of seizures (seizures [5]) was “ineffective”, the prevention of seizures (seizures [6]) was “able to prevent seizures” and the “proportion of patients with greater than 50% reduction of myoclonic absence seizures” value [7] was 75%. The “responder rate by OCE type” value (refractory epilepsy) was 35%.

For `CCCCCc1cc(O)c2c(c1)OC(C)(C)[C@@H]1CCC(C)=C[C@@H]21` [THC, Tetrahydrocannabinol], the effect on seizures (seizures [8]) is given as “pro-convulsant”.
